Results from PubChem BioAssay (NCI).
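1) Cells in 96-well plates. 2) Compound, 48 h, 5 concentrations. 3) Linear interpolation between surrounding doses. 4) Unreached endpoint = highest concentration. TGI denotes the concentration required for complete inhibition of growth.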

How the values were obtained:
Test in all cases: DTP human tumour cell line panel, 48 h
IGROV1 ovarian = system: IGROV1 ovarian
LOX IMVI melanoma = system: LOX IMVI melanoma
SNB-75 CNS = system: SNB-75 CNS
OVCAR-5 ovarian = system: OVCAR-5 ovarian
OVCAR-3 ovarian = system: OVCAR-3 ovarian
MALME-3M melanoma = system: MALME-3M melanoma
RXF 393 renal = system: RXF 393 renal
K-562 leukemia = system: K-562 leukemia
HOP-92 NSCLC = system: HOP-92 NSCLC
MCF7 breast = system: MCF7 breast
CAKI-1 renal = system: CAKI-1 renal
SW-620 colon = system: SW-620 colon
HCT-15 colon = system: HCT-15 colon
OVCAR-4 ovarian = system: OVCAR-4 ovarian
M14 melanoma = system: M14 melanoma
CCRF-CEM leukemia = system: CCRF-CEM leukemia
HL-60(TB) leukemia = system: HL-60(TB) leukemia
UACC-257 melanoma = system: UACC-257 melanoma

Measured: TGI

COc1cc(OCc2nc3ccccc3n3cccc23)cc(OC)c1OC
48.2 µM: HL-60(TB) leukemia
> 74.4 µM: MALME-3M melanoma
> 54.5 µM: SW-620 colon
> 60.9 µM: OVCAR-3 ovarian | UACC-257 melanoma
25.4 µM: CCRF-CEM leukemia
> 63 µM: OVCAR-4 ovarian
> 78.3 µM: M14 melanoma
37.6 µM: MCF7 breast
23.8 µM: K-562 leukemia
> 100 µM: all other assays above

CC[C@](O)(CC(=O)O[C@H]1C(=O)O[C@@H]2C[C@H]3C(C)=CC(=O)[C@@H](O)[C@]3(C)[C@H]3[C@@]4(O)OC[C@]32[C@@H]1[C@@H](C)[C@H]4O)C(C)C
0.0398 µM: CAKI-1 renal
< 0.0117 µM: HCT-15 colon
< 0.0144 µM: OVCAR-4 ovarian
< 0.0392 µM: MCF7 breast
< 0.01 µM: all other assays above

Cc1c(C)c2c(c(N)c1C#N)C(=O)N(CCc1ccccc1)C2=O
> 100 µM: all assays above

CN(C)C=Nc1cccc2nsnc12
not listed: SW-620 colon
> 100 µM: all other assays above

COc1ccc2cc(CNCCCCCCCCCCCCNCc3ccc4cc(OC)ccc4c3)ccc2c1
> 50 µM: K-562 leukemia
31.8 µM: MALME-3M melanoma
28.2 µM: LOX IMVI melanoma
41.3 µM: OVCAR-4 ovarian
50.9 µM: HCT-15 colon
> 37.4 µM: CCRF-CEM leukemia
47.5 µM: HOP-92 NSCLC
29.9 µM: IGROV1 ovarian
36.3 µM: UACC-257 melanoma
35.9 µM: M14 melanoma
> 51.9 µM: SW-620 colon
47.3 µM: CAKI-1 renal
34.9 µM: HL-60(TB) leukemia
28.7 µM: SNB-75 CNS | RXF 393 renal
> 57.1 µM: OVCAR-5 ovarian
31.9 µM: MCF7 breast
37.1 µM: OVCAR-3 ovarian

O=C(c1cc(Cl)cc(Cl)c1)N(C(=O)N1CCN(c2ccccc2)CC1)c1ccccc1
not listed: IGROV1 ovarian
> 100 µM: all other assays above

CC(=O)C(I(OS(=O)(=O)c1ccc(C)cc1)c1ccccc1)=P(c1ccccc1)(c1ccccc1)c1ccccc1
54.7 µM: HOP-92 NSCLC
60.2 µM: OVCAR-5 ovarian
37 µM: OVCAR-4 ovarian
> 100 µM: RXF 393 renal | K-562 leukemia | MCF7 breast | CAKI-1 renal | HCT-15 colon
59 µM: UACC-257 melanoma
56.1 µM: OVCAR-3 ovarian
73.5 µM: IGROV1 ovarian
59.3 µM: M14 melanoma
76.3 µM: HL-60(TB) leukemia
30 µM: MALME-3M melanoma
78.3 µM: CCRF-CEM leukemia

COc1ccc(/C=C2\CCC(CNc3cc(C)on3)C2=O)cc1 (configuration not stated)
> 21.5 µM: RXF 393 renal | HL-60(TB) leukemia
> 76.4 µM: SNB-75 CNS
> 100 µM: all other assays above

Cc1cc(C)nc(NS(=O)(=O)c2ccc(NNc3c4ccccc4nc4c(C(=O)Nc5ccc(S(=O)(=O)Nc6ncccn6)cc5)cccc34)cc2)n1
73.1 µM: K-562 leukemia
80.1 µM: RXF 393 renal
60.3 µM: MALME-3M melanoma
45.1 µM: LOX IMVI melanoma
42.2 µM: OVCAR-3 ovarian
94.3 µM: UACC-257 melanoma
55.2 µM: SW-620 colon
59.9 µM: CCRF-CEM leukemia
52.5 µM: OVCAR-5 ovarian
89.7 µM: OVCAR-4 ovarian
62.9 µM: HL-60(TB) leukemia
73.9 µM: SNB-75 CNS
66.5 µM: HOP-92 NSCLC
> 100 µM: all other assays above

COc1cccc(OC/C(N=Cc2cccnc2)=N/NC(=O)c2ccncc2)c1
> 100 µM: all assays above

C/C1=C/C(C)CC(C)OC(=O)C(C)NC(=O)C(Cc2ccc(O)c(I)c2)N(C)C(=O)CNC(=O)C(C)C1 (configuration not stated)
> 100 µM: OVCAR-5 ovarian | MCF7 breast | SW-620 colon | M14 melanoma
0.0654 µM: HOP-92 NSCLC
6.22 µM: MALME-3M melanoma
0.0236 µM: IGROV1 ovarian
5.97 µM: UACC-257 melanoma
11.2 µM: HCT-15 colon
< 0.0141 µM: SNB-75 CNS
not listed: K-562 leukemia | OVCAR-4 ovarian
< 0.01 µM: all other assays above

CCOC(=O)C(C(=O)OCC)=C1NC2(c3ccccc3Nc3ccc(C)cc32)C(C#N)S1 (configuration not stated)
27.8 µM: RXF 393 renal
11.9 µM: MCF7 breast
27.2 µM: IGROV1 ovarian
72 µM: CAKI-1 renal
45.6 µM: UACC-257 melanoma
8.44 µM: OVCAR-3 ovarian
24.4 µM: LOX IMVI melanoma
61.2 µM: HL-60(TB) leukemia
29.5 µM: HCT-15 colon
64.3 µM: SNB-75 CNS
30.3 µM: SW-620 colon
30.7 µM: MALME-3M melanoma
14.2 µM: HOP-92 NSCLC
17.6 µM: M14 melanoma
27.7 µM: OVCAR-5 ovarian
25.8 µM: K-562 leukemia
40.7 µM: OVCAR-4 ovarian
> 100 µM: CCRF-CEM leukemia

COc1nc(C)nc2sc3c(c12)CCCC3
not listed: HOP-92 NSCLC | M14 melanoma | CCRF-CEM leukemia
> 100 µM: all other assays above

CO[C@H]1c2cccc3cccc(c23)[C@@H]1n1[nH]c(=O)n(C(C)(C)C)c1=O
not listed: HOP-92 NSCLC
> 100 µM: all other assays above

COc1cc(/C=C(\C#N)c2nc3ccccc3o2)ccc1O
56.3 µM: MALME-3M melanoma
40.7 µM: OVCAR-4 ovarian
55.3 µM: HL-60(TB) leukemia
61.2 µM: OVCAR-5 ovarian
54.6 µM: M14 melanoma
42.6 µM: HCT-15 colon
40.9 µM: OVCAR-3 ovarian
38.1 µM: IGROV1 ovarian
> 100 µM: RXF 393 renal | K-562 leukemia | MCF7 breast | CCRF-CEM leukemia | UACC-257 melanoma
45.9 µM: CAKI-1 renal
50.8 µM: HOP-92 NSCLC

O=C1c2ccccc2C(O)(C(=O)O)C1(O)CC=C(Cl)Cl (configuration not stated)
> 117 µM: HOP-92 NSCLC
not listed: M14 melanoma
> 125 µM: all other assays above

CCN(CC)C(=C(C(Cl)=C(Cl)Cl)[N+](=O)[O-])N(CC)CC
91.6 µM: MALME-3M melanoma
67 µM: RXF 393 renal
not listed: HOP-92 NSCLC
> 100 µM: all other assays above

O=C1CC(NC(=O)C(F)(F)F)c2c1csc2Br (configuration not stated)
9.85 µM: MCF7 breast
30.5 µM: CAKI-1 renal
6.03 µM: OVCAR-5 ovarian
47.9 µM: RXF 393 renal
not listed: SNB-75 CNS
> 100 µM: all other assays above

COc1ccc2c(c1)/C(=C\c1c(C)nc3n1CCS3)C(=O)N2
76 µM: OVCAR-3 ovarian
93.7 µM: M14 melanoma
66.8 µM: HL-60(TB) leukemia
not listed: MALME-3M melanoma | OVCAR-4 ovarian
> 100 µM: all other assays above

N=c1oc2ccc([N+](=O)[O-])cc2cc1C(=O)NCc1ccccc1
36.7 µM: HOP-92 NSCLC
29.5 µM: SNB-75 CNS
30.9 µM: IGROV1 ovarian
26.7 µM: MALME-3M melanoma
63.5 µM: OVCAR-4 ovarian
61.3 µM: M14 melanoma
33.5 µM: HCT-15 colon
38.2 µM: UACC-257 melanoma
36.2 µM: CAKI-1 renal
32.2 µM: LOX IMVI melanoma
39.5 µM: SW-620 colon
96 µM: OVCAR-5 ovarian
28 µM: RXF 393 renal
not listed: OVCAR-3 ovarian
> 100 µM: all other assays above

Cc1cc([C@H](C#N)c2nc3ccccc3[nH]2)nc(Cl)n1
93.4 µM: SNB-75 CNS
71.4 µM: UACC-257 melanoma
not listed: OVCAR-5 ovarian | OVCAR-3 ovarian | M14 melanoma
> 100 µM: all other assays above

COc1cc(S(=O)(=O)Nc2nc(-c3ccc(N4C(=O)C(CC(=O)O)SC4c4ccccc4O)cc3)cs2)ccc1Cl (configuration not stated)
57 µM: HL-60(TB) leukemia
not listed: CCRF-CEM leukemia
> 100 µM: all other assays above

O=C(O)c1ccc(P(=O)(O)c2ccc(C(=O)O)cc2Br)c(Br)c1
not listed: OVCAR-5 ovarian | MALME-3M melanoma | OVCAR-4 ovarian | CCRF-CEM leukemia
> 100 µM: all other assays above

Cc1ccc2c(c1)C(=O)/C(=N/Nc1ccc(Cl)cc1)CCO2
not listed: RXF 393 renal
> 100 µM: all other assays above

COc1ccc(OC)c2sc(N3C(=O)/C(=C/c4ccc(Cl)cc4)N=C3c3ccccc3)nc12
86.6 µM: K-562 leukemia
79.2 µM: MCF7 breast
not listed: OVCAR-4 ovarian
> 100 µM: all other assays above

COC(=O)Nc1nc2ccc(S(=O)(=O)NC(CC(C)C)C(=O)OC)cc2[nH]1 (configuration not stated)
95.1 µM: OVCAR-5 ovarian
8.16 µM: SNB-75 CNS
2.7 µM: OVCAR-3 ovarian
15.9 µM: RXF 393 renal
41.2 µM: MALME-3M melanoma
6.45 µM: IGROV1 ovarian
8.04 µM: HL-60(TB) leukemia
not listed: M14 melanoma | UACC-257 melanoma
> 100 µM: all other assays above

OC1(CCc2ccccc2)COC(C(F)(F)F)(C(F)(F)F)C1 (configuration not stated)
not listed: HOP-92 NSCLC | UACC-257 melanoma
> 100 µM: all other assays above
